Source: US11254640B2, “N-substituted indoles and other heterocycles for treating brain disorders” (The Regents of the University of California, priority 2019, dated 2022)
Read-outs that look alike come from different tables or passages of the source.

Legend:
Assay type in all cases: cell-based
[1] = test system: 5HT2A sensor; assay: 5HT2A sensor assay, antagonist mode (sLight1.3s HEK293T stable line); conditions: relative to 5-HT at 100 nM; for 5HT2A Antagonist mean @ 100 nM (%): 100 nM compound; for 5HT2A Antagonist mean @ 10 μM (%): 10 μM compound; for 5HT2A Antagonist mean @ 100 μM (%): 100 μM compound
Protocol: In some embodiments, the 5HT2A sensor assay is in an antagonist mode.
(§1) 5HT2A Sensor Assays. HEK293T (ATCC) 5HT2A sensor stable line (sLight1.3s) was generated via lentiviral transduction of HIV-EF1α-sLight1.3 and propagated from a single colony. Lentivirus was produced using 2nd generation lentiviral plasmids pHIV-EF1α-sLight1.3, pHCMV-G, and pCMV-deltaR8.2.
(§2) For the screening of the 41 compounds, sLight1.3s cells were plated in 96-well plates at a density of 40000 24-hours prior to imaging. On the day of imaging, compounds solubilized in DMSO were diluted from the 100 mM stock solution to working concentrations of 1 mM, 100 μM and 1 μM with a DMSO concentration of 1%. Immediately prior to imaging, cells growing in DMEM (Gibco) were washed 2× with HBSS (Gibco) and in agonist mode 180 μL of HBSS or in antagonist mode 160 μL of HBSS was added to each well after the final wash. For agonist mode, images were taken before and after the addition of the 20 μL compound working solution into the wells containing 180 μL HBSS. This produced final compound concentrations of 100 μM, 10 μM and 100 nM with a DMSO concentration of 0.1%. For antagonist mode, images were taken before and after addition of 20 μL of 900 nM 5-HT and again after 20 μL of the compound working solutions to produce final concentrations of 100 nM for 5HT and 100 μM, 10 μM and 100 nM for the compounds with a DMSO concentration of 0.1%. Each compound was tested in triplicates (3 wells) for each concentration (100 μM, 10 μM and 100 nM). Additionally, within each plate, 100 nM 5HT and 0.1% DMSO controls were also imaged.
(§3) Imaging was performed using the Leica DMi8 inverted microscope with a 40× objective using the FITC preset with an excitation of 460 nm and emission of 512-542 nm. For each well, the cellular membrane where the 5HT2A sensor is targeted was autofocused using the adaptive focus controls and 5 images from different regions within the well were taken with each image processed from a 2×2 binning.
(§4) For data processing, the membranes from each image was segmented and analyzed using a custom algorithm written in MATLAB producing a single raw fluorescence intensity value. For each well the 5 raw fluorescence intensity values generated from the 5 images were averaged and the change in fluorescence intensity (dFF) was calculated as: dFF=(Fsat−Fapo)/Fapo
(§5) For both agonist and antagonist modes, the fluorescence intensity values before compound addition in HBSS only were used as the Fapo values while the fluorescence intensity values after compound addition were used as the Fsat values.
(§6) For agonist mode, data are as percent activation relative to 5HT, where 0 is the average of the DMSO wells and 100 is the average of the 100 uM 5HT wells. For antagonist mode, the inactivation score was calculated as: Inactivation score=(dFFF(Compound+5HT)−dFF(5HT))/dFF(5HT)

[2] = target: T1, 5HT2A (Homo sapiens, UniProt P28223); assay: Calcium flux assay (Calcium secondary messenger pathway); conditions: agonist mode
T1 construct: expressed in transfected cells
T1 sequence (P28223 whole entry): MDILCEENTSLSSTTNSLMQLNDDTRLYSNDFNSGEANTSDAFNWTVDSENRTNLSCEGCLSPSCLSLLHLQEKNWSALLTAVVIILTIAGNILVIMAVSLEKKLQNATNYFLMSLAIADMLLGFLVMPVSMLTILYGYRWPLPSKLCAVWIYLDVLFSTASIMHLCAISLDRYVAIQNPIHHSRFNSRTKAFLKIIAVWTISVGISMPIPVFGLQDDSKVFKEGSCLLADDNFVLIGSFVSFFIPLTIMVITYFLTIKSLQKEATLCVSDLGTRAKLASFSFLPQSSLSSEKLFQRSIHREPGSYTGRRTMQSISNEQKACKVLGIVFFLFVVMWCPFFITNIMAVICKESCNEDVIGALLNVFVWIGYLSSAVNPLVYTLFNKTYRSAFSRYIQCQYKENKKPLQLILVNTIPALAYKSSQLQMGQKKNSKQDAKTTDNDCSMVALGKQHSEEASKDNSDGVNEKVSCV
Excerpt: Calcium Flux Assay. Calcium Secondary Messenger Pathway. The Calcium No Wash^PLUS assay monitors the activation of a GPCR (e.g., 5HT2A) via Gq secondary messenger signaling in a live cell, non-imaging assay format. Calcium mobilization in PathHunter® cell lines or other cell lines stably expressing Gq-coupled GPCRs (e.g., 5HT2A) is monitored using a calcium-sensitive dye that is loaded into cells. GPCR (e.g., 5HT2A) activation by a compound results in the release of calcium from intracellular stores and an increase in dye fluorescence that is measured in real-time. In some embodiments, the ability of a compound of the present invention to modulate 5-HT2A function is determined using a calcium flux assay. In some embodiments, a compound of the present invention activates a calcium flux assay.
Calcium Secondary Messenger Pathway. Cell lines were expanded from freezer stocks according to standard procedures. Cells were seeded in a total volume of 20 μL into black-walled, clear-bottom, Poly-D-lysine coated 384-well microplates and incubated at 37° C. for the appropriate time prior to testing. Assays were performed in 1× Dye Loading Buffer consisting of 1× Dye, 1× Additive A and 2.5 mM Probenecid in HBSS/20 mM Hepes. Probenicid was prepared fresh. Cells were loaded with dye prior to testing. Media was aspirated from cells and replaced with 20 μL Dye Loading Buffer. Cells were incubated for 30-60 minutes at 37° C.
For agonist determination, cells were incubated with sample to induce response. After dye loading, cells were removed from the incubator and 10 μL HBSS/20 mM Hepes was added. 3× vehicle was included in the buffer when performing agonist dose curves to define the EC80 for subsequent antagonist assays. Cells were incubated for 30 minutes at room temperature in the dark to equilibrate plate temperature. Intermediate dilution of sample stocks was performed to generate 4× sample in assay buffer. Compound agonist activity was measured on a FLIPR Tetra (MDS). Calcium mobilization was monitored for 2 minutes and 10 μL 4× sample in HBSS/20 mM Hepes was added to the cells 5 seconds into the assay.
Compound activity was analyzed using CBIS data analysis suite (ChemInnovation, CA). For agonist mode assays, percentage activity is calculated using the following formula: % Activity=100%×(mean RFU of test sample−mean RFU of vehicle control)/(mean MAX RFU control ligand−mean RFU of vehicle control).

[3] = test system: rat cortical neurons; assay: Neurite outgrowth assay; conditions: Cortical neurone, 1 hour treatment at DIV 4, analysed DIV 7, fold vs DMSO control
Excerpt: Neurite outgrowth assay. Changes in the pattern of neurite outgrowth have been implicated in neurodegenerative disorders as well as traumatic injuries. The discovery of new compounds that can positively affect neuritogenesis are important for developing new therapeutics for neurological diseases. Measurement of neurite outgrowth of rat cortical neurons using an automated image-based assay was used to determine the neuroplastic effects of the compounds of the present invention. In some embodiments, a compound of the present invention increases the pattern of neurite outgrowth. In some embodiments, a compound of the present invention increases neurite average length compared to a control. In some embodiments, a compound of the present invention increases neurite branch points compared to a control. In some embodiments, a compound of the present invention increases neurite average length and neurite branch points compared to a control.
Neurite Outgrowth Assay. Rat cortical neurons (20,000 cells/well) were freshly isolated from embryonic day 18 rats and cultured in Neurobasal Medium (+B27). The cultured cells were plated in 96 well-plates (avoiding external wells). At DIV 4, the neurons were treated with compound or control (10 μM) for 1 hour followed by complete washout of the compound. At DIV 7, the neurons were analyzed. The experiments were performed in triplicate. Neurite outgrowth was measured analyzing the following parameters: Number of Cell Bodies, total neurite length (pixels), Root Count, Segments, Extremities Count and node points. Changes in the pattern of neurite outgrowth of the neurons were analyzed by immunocytochemistry against β-III-tubulin. Pictures were acquired by the CellInsight CX7 from Thermo Fisher and analyzed using its software. Results generated in the equipment were maximum neurite length, extremity count, root count, dendrite branch points, and total neurite length. The results were compared to DMSO control, representing the fold-change in neuronal outgrowth.

[4] = test system: 5HT2A sensor; assay: 5HT2A sensor assay, agonist mode (sLight1.3s HEK293T stable line); conditions: percent relative to 5-HT at 100 uM; for 5HT2A Agonist mean @ 100 nM (%): 100 nM compound; for 5HT2A Agonist mean @ 10 μM (%): 10 μM compound; for 5HT2A Agonist mean @ 100 μM (%): 100 μM compound
Protocol: In some embodiments, hallucinogenic potential of a compound of the present invention is determined in vitro. In some embodiments, hallucinogenic potential of a compound of the present invention is determined using a 5HT2A sensor assay. In some embodiments, the 5HT2A sensor assay is in an agonist mode or an antagonist mode. In some embodiments, the 5HT2A sensor assay is in an agonist mode.
as §1, §2, §3, §4, §5, §6

[5] = read-out: Neurite Average Length @ 10 μM
[6] = read-out: Neurite Branch Points: @ 10 μM

Row | Compound | 5HT2A Antagonist mean @ 100 nM (%) [1] | 5HT2A Antagonist mean @ 10 μM (%) [1] | 5HT2A Antagonist mean @ 100 μM (%) [1] | EC50 [2] [µM] | fold induction at 10 µM [3, 5] | fold induction at 10 µM [3, 6] | 5HT2A Agonist mean @ 100 nM (%) [4] | 5HT2A Agonist mean @ 10 μM (%) [4] | 5HT2A Agonist mean @ 100 μM (%) [4]
1 | COc1ccc2c(ccn2CCN2CCOCC2)c1 [Example 46, 4-(2-(5-methoxy-1H-indol-1-yl)ethyl)morpholine] | A (inhibits 5HT response by >100%) | A (inhibits 5HT response by >100%) | A (inhibits 5HT response by >100%) | > 10 | 1.5 to 3 | 1.5 to 3 | B (does not activate 5HT2A sensor assay in agonist mode) | B (does not activate 5HT2A sensor assay in agonist mode) | B (does not activate 5HT2A sensor assay in agonist mode)
2 | Cc1nc2ccccc2n1CCN(C)C [Example 58, N,N-dimethyl-2-(2-methyl-1H-benzo[d]imidazol-1-yl)ethan-1-amine] | A (inhibits 5HT response by >100%) | A (inhibits 5HT response by >100%) | A (inhibits 5HT response by >100%) | > 10 | 1.5 to 3 | 1.5 to 3 | B (does not activate 5HT2A sensor assay in agonist mode) | B (does not activate 5HT2A sensor assay in agonist mode) | A (activates 5HT2A sensor assay in agonist mode)
3 | COc1cc2ccn(C[C@@H](C)N(C)C)c2cc1OC [Example 62, (R)-1-(5,6-dimethoxy-1H-indol-1-yl)-N,N-dimethylpropan-2-amine] | B (inhibits 5HT response by 75% to 100%) | B (inhibits 5HT response by 75% to 100%) | A (inhibits 5HT response by >100%) | > 10 | 1.5 to 3 | 1.5 to 3 | B (does not activate 5HT2A sensor assay in agonist mode) | B (does not activate 5HT2A sensor assay in agonist mode) | A (activates 5HT2A sensor assay in agonist mode)
4 | COc1ccc2c(ccn2CCN2CC3(COC3)C2)c1 [Example 84, 6-(2-(5-methoxy-1H-indol-1-yl)ethyl)-2-oxa-6-azaspiro[3.3]heptane] | B (inhibits 5HT response by 75% to 100%) | B (inhibits 5HT response by 75% to 100%) | B (inhibits 5HT response by 75% to 100%) | > 10 | 1.5 to 3 | 1.5 to 3 | B (does not activate 5HT2A sensor assay in agonist mode) | B (does not activate 5HT2A sensor assay in agonist mode) | A (activates 5HT2A sensor assay in agonist mode)
5 | Clc1ccc2c(ccn2CCN2CCOCC2)c1 [Example 49, 4-(2-(5-chloro-1H-indol-1-yl)ethyl)morpholine] | A (inhibits 5HT response by >100%) | B (inhibits 5HT response by 75% to 100%) | C (inhibits 5HT response by <75%) | > 10 | 1.5 to 3 | 1.5 to 3 | B (does not activate 5HT2A sensor assay in agonist mode) | B (does not activate 5HT2A sensor assay in agonist mode) | A (activates 5HT2A sensor assay in agonist mode)
6 | COc1cc(C)c2c(ccn2C[C@@H](C)N(C)C)c1 [Example 65, (R)-1-(5-methoxy-7-methyl-1H-indol-1-yl)-N,N-dimethylpropan-2-amine] | C (inhibits 5HT response by <75%) | A (inhibits 5HT response by >100%) | A (inhibits 5HT response by >100%) | > 10 | 1.5 to 3 | 1.5 to 3 | B (does not activate 5HT2A sensor assay in agonist mode) | B (does not activate 5HT2A sensor assay in agonist mode) | B (does not activate 5HT2A sensor assay in agonist mode)
7 | COc1ccc2c(ccn2CCN2CCCCC2)c1 [Example 45, 5-methoxy-1-(2-(piperidin-1-yl)ethyl)-1H-indole] | A (inhibits 5HT response by >100%) | B (inhibits 5HT response by 75% to 100%) | A (inhibits 5HT response by >100%) | > 10 | 1.5 to 3 | 1.5 to 3 | B (does not activate 5HT2A sensor assay in agonist mode) | B (does not activate 5HT2A sensor assay in agonist mode) | B (does not activate 5HT2A sensor assay in agonist mode)
